# Columns and labels:
# TGF-beta activity = TGF-beta activity by effect on SMC proliferation (CPD) with and without neutralising anti-TGF-beta antibody; type: cell-based, human; conditions: 0 μM T, 72 hrs
# Experimental: (1995) Cardiovasc. Res. 29:848-55). […] The cells were then incubated for either 24 hrs or 72 hrs depending on the experiment. All treatment conditions were established in triplicate. Finally, TGF-beta activity was estimated by the direct effects on smooth muscle cell proliferation within the assay. For these experiments, the test agents were added, in triplicate, to cells both in the presence and absence of a neutralising antibody to TGF-beta (AB-100-NA; […] R&D Systems). After 72 hrs incubation, the cells are washed and then released completely using 0.02% trypsin/EDTA (Gibco) at 37° C. for 10 mins, then counted manually using a haemocytometer. Importantly, the number of cells at 0 hrs must also be determined (using the same counting method, on a replicate set of three wells plated out specifically for the purpose). For each treatment condition, the TGF-beta-dependent inhibition of proliferation is expressed as the fold increase in the cumulative population doubling time in the absence of the neutralising antibody compared to the cumulative population doubling time in the presence of the neutralising antibody. […] Failure of either control led to the repeat of the experiment.
# [1] = tested on: anti-carbohydrate antibodies; assay: anti-carbohydrate antibody isotype profile in serum of men with coronary artery disease, direct ELISA; type: in vivo, human; conditions: 3 months
# Experimental: Blood samples were also taken at baseline, immediately prior to beginning the drug treatments, and also after 90 days. The blood was drawn from the antecubital fossa using 19-gauge butterfly needles, and dispensed into polypropylene tubes, where it was allowed to clot for between 2 and 3 hours at room temperature. The clot was released, and the sample spun (450×g; 4 mins), and the serum supernatant removed, aliquoted and stored frozen at −80° C. until analysed.
# The level of anti-carbohydrate antibodies was measured by direct ELISA as previously described (Mosedale et al (2006) J. Immunol. Meth. 309:182-91). Briefly, Maxisop 96-well plates were coated with BSA-alpha-Gal (Glycorex) at 1 μg/well in 200 μl of Sodium Carbonate pH9.0 overnight at 4° C. After three quick washes with PBS, non-specific binding was blocked using 3% BSA in PBS at room temperature for 1 hour. After three further washes the serum was added at various dilutions ranging from neat to 1:100 dilution in PBS, then incubated for 2 hours at room temperature with shaking. The serum was then discarded, the plate washed 5 further times with PBS+0.1% Tween-20, and replicate strips (each containing a full range of dilutions of the same serum sample) were exposed to highly specific monoclonal antibodies to each isotype, including IgG1, IgG2, IgG3, IgG4, IgM, IgA, IgE and IgD, at 1 μg/ml in blocking buffer. After a further hour at room temperature with shaking, the antibody was discarded and the plate washed 3 further times with PBS/Tween, before being exposed to donkey anti-mouse IgG minimum cross reactivity, coupled to horseradish peroxidase (Jackson Immunoresearch), at 1 μg/ml in blocking buffer for a further 1 hour at room temperature with shaking. After a final 3 washes in PBS/Tween and single wash in PBS, 200 μl of K-blue chromogenic substrate was added to each well. After a carefully controlled period, accurate to 5 seconds, equal for all wells, the reaction was stopped by the addition of 50 μl 2M HCl and the colour read at 450 nm. Results are reported for each isotype as the mean titre (that is, the dilution of serum which yielded 50% of the maximal signal) as well as the mean signal at that titre (since the maximum absorbance in many cases was considerably below full scale deflection).
# Blood samples were also taken at baseline, immediately prior to beginning the drug treatments, and also after 90 days, and serum prepared exactly as in Example 5. The level of anti-carbohydrate antibodies was then measured by direct ELISA using the procedure given in Example 5.
# [2] = pro-thrombin time (PTT) in men with coronary artery disease; conditions: men with coronary heart disease, 3 months, Tamoxifen 20 mg once daily, vs baseline
# Experimental: Patients continued with all other medications (statins, ACE inhibitors, beta blockers, calcium channel blockers, diuretics etc), but no patients were taking warfarin or tirofiban.
# The coagulant status of the individuals was assessed using the pro-thrombin time (PTT, measured clinically; Hinchingbrooke Hospital, UK). PTT was measured twice, one week apart, prior to beginning the study, and then after 90 days treatment. In each case, each patient acted as their own control, and the impact of the treatment on PTT was assessed using a paired Student's t-test comparing the PTT at 90 days with the average of the two baseline determinations.
# [3] = Tamoxifen 20 mg once daily, aspirin 75 mg once daily, mean ± SD
# [4] = neat serum, Tamoxifen 20 mg once daily, aspirin 75 mg once daily, mean ± SD
Compound,TGF-beta activity: ratio of CPD in the absence and presence of neutralising anti-TGF-beta antibody (TGF-beta activity; 10 μM A),TGF-beta activity: ratio of CPD in the absence and presence of neutralising anti-TGF-beta antibody (TGF-beta activity; 33 μM A),TGF-beta activity: ratio of CPD in the absence and presence of neutralising anti-TGF-beta antibody (TGF-beta activity; 100 μM A),"TGF-beta activity: ratio of CPD in the absence and presence of neutralising anti-TGF-beta antibody (TGF-beta activity; 100 μM A, listed as A)","IgA titre, change versus baseline [1, 3]","IgD titre, change versus baseline [1, 3]","IgG2 titre, change versus baseline [1, 3]","IgM titre, change versus baseline [1, 3]",absorbance of the IgA class anti-carbohydrate antibodies (in words) ([1]; Example 6),titre of IgD class anti-carbohydrate antibodies (in words) ([1]; Example 6),titre of the IgG2 class anti-carbohydrate antibodies (in words) ([1]; Example 6),"IgA Absorbance, change versus baseline [1, 4]","IgD Absorbance, change versus baseline [1, 4]","IgG2 Absorbance, change versus baseline [1, 4]","IgM Absorbance, change versus baseline [1, 4]","change in pro-thrombin time ([2]; Example 5, aspirin 75 mg once daily)","change in pro-thrombin time ([2]; Example 6, clopidogrel 75 mg once daily)"
"CC(=O)Oc1ccccc1C(=O)O [Aspirin, acetylsalicylic acid]",1.05 ± 0.09 fold,1.13 ± 0.17 fold,1.25 fold,1.25 ± 0.06 fold,,,,,,,,,,,,,
CC/C(=C(\c1ccccc1)c1ccc(OCCN(C)C)cc1)c1ccccc1 [Tamoxifen],,,,,+14% ± 52%,−234% ± 113%,+176% ± 43%,+16% ± 28%,statistically significantly increased,statistically significantly reduced,statistically significantly increased,0.31 ± 0.17,−0.82 ± 0.51,+0.61 ± 0.17,−0.29 ± 0.36,+17%,+19%

# — patent publication US20120100204A1, “TGF-Beta Stimulating Agent Compositions and Combinations” (TCP INNOVATIONS LTD, priority 2007, published 2012)
